Experimental findings from article PMC12717099, “Peptidoglycan recruitment by a penicillin binding protein” (Nature Communications, 2025) are described below.

Assay [1] relates to E. faecium D344SRF pCWR624Δpbp5_pbp5_V2. The experiment in a line: Disk diffusion assay, pbp5_V2. The class given is cell-based, Enterococcus faecium. As to conditions: strain pbp5_V2 (N523A_Q627A); 37 °C, 24 h; n=3. How it is done: The synthetic genes were purchased from GeneWiz (South Plainfield, NJ). The ribosome binding site sequence AGGAGG (Shine-Dalgarno), and a string of five A’s followed by the sequence […], that corresponds to the first 15 bp found in pbp5 from E. faecium C68 were added upstream of the START codon. The terminator sequence […] was added downstream of the STOP codon. BamHI restriction sites were added to the flanking 5′ and 3′ ends. The synthetic genes were inserted into the vector pCWR624Δpbp5. This vector was derived from pCWR624[10], in which the pbp5 gene from D366 was excised by digestion with BamHI followed by re-ligation of the vector, allowing subsequent insertion of modified synthetic pbp5s into the BamHI site downstream of ftsWEfm and psr from E. faecium C68[10]. The synthetic genes were inserted in a BamHI site located downstream of psr. The proper orientation was confirmed by PCR amplification using the forward primer OR_pbp5_FOR_1 (5′-[…]-3′) and the reverse primer OR_pbp5_REV_1 (5′-[…]-3′). Plasmids were sequence verified for the specific binding site mutations. The resulting constructions were electroporated into the natural pbp5(-) mutant E. faecium D344SRF with a selection on brain heart infusion agar (BHI) plates containing kanamycin (1500 µg/ml).
E. faecium strains were streaked fresh from −80 °C stored glycerol stocks onto brain heart infusion (BHI) agar plates and incubated for 18 h at 37 °C. Strains harboring the plasmid derivatives were grown under antibiotic pressure on agar plates containing kanamycin at 1500 µg/ml. A single colony was inoculated into BHI or BHI-kanamycin (1500 µg/ml) for overnight cultures (18 h).
Antibiotic disks used were manufactured by BD BBL^TM. Disk diffusion assays were performed according to the Clinical and Laboratory Standards Institute (CLSI) guidance. Overnight cultures were inoculated into 3 ml of BHI or BHI-kanamycin (1500 µg/ml) broth with a dilution of 1:100 and incubated until an OD600 of ~0.5 was reached. […] The plates were incubated at 37 °C and the zones of inhibition were measured after 24 h. […]
In general terms: Agar diffusion results depend on both activity and mobility in agar.

Assay [2] relates to PBP5:ceftaroline complex (1:8). The experiment in a line: NMR CSP titration of SP2 into ceftaroline-saturated PBP5. As to conditions: PBP5:ceftaroline 1:8. The class given is binding, Enterococcus faecium. The procedure:
Data was processed using Topspin 4.1.4 (Bruker) and analyzed using NMRFAM-SPARKY 1.3 and Poky (build number 20240829)[20],[21]. The sequence-specific backbone assignment of PBP5 is publicly available at BMRBID 51690.
SPs (SP1 to SP7) were titrated into 0.5 mM (^2H,^15N)-labeled and 0.1 mM (^2H,^15N)/^13C ILV labeled PBP5 at molar ratios of 0:1, 5:1, 10:1, 20:1, 40:1, 60:1, and 80:1 (stem peptide/SP:PBP5; molar ratios). 2D [^1H,^15N] TROSY or 2D [^1H,^13C] HMQC spectra were recorded for each titration point. SPs were solubilized in NMR buffer. Chemical shift perturbations (Δδ) between PBP5 and SP bound PBP5 spectra were calculated using Eq. 1,1 Δδppm=ΔδH^2+ΔδX/Y^2 where, X is ^15N or ^13C and Y is the constant i.e., 10 for ^15N and 4 for ^13C.
Residues with significant CSPs were identified by calculating the standard deviation of all CSPs (σ), then excluding any CSPs larger than average+2σ, recalculating σ as a new corrected σ0, and then repetitively removing CSPs above 2σ0 until no additional CSPs can be removed. CSPs above ≥2σ2 was the statistical threshold for ^1H/^15N backbone CSP analysis and ≥2xσ1 for ^1H/^13C methyl ILV data for the interaction of SP1 with PBP5. The same threshold values were used for all other peptides to allow for direct comparison with the SP1/PBP5 interaction. […]

A further assay deals with PBP2B. The experiment in a line: 1D 1H STD NMR of SP2 with PBP2B. The class given is binding, E. faecalis. As to conditions: for STD amplification factor, 2000: protein:peptide 1:100, 2 s saturation. From the text:
Total saturation time for STD measurements was 2 s.
Overlapped peaks were completely excluded from the analysis.

Take `CO/N=C(\C(=O)N[C@@H]1C(=O)N2C(C(=O)O)=C(CSc3nc(=O)c(=O)[nH]n3C)CS[C@H]12)c1csc(N)n1` [Ceftriaxone, ceftriaxone]: the “Zone Size (mm) [Range]” value in assay [1] is 24 [24-26] mm.

In the case of D-Lac-L-Ala-D-iGln-L-Lys(D-iAsn) [SP2], in assay [2], the “CSPs with ceftaroline-saturated PBP5 vs β-lactam free and PenG-saturated PBP5, in words” value is listed as “virtually identical”. Further, the “STD % to SP1” value worked out at 24.9553% in the assay with PBP2B (1H DLacβ); 52.517% in the assay with PBP2B (1H DQ2β (first listed)); 59.0483% in the assay with PBP2B (1H DQ2β (second listed)); 22.6012% with PBP2B (1H DQ2γ); 41.2007% in the assay with PBP2B (1H K3α); 85.7339% in the assay with PBP2B (1H K3β). For the same compound, the “STD % to SP1” value with PBP2B (1H K3γ) is reported as 40.677%; with PBP2B (1H K3δ), 54.3796%; with PBP2B (1H K3ε) it was 13.0751%; with PBP2B (1H LA1α), 44.8726%; with PBP2B (1H LA1β), 28.2398%; in the assay on PBP2B (1H iNα,DQ2α) it was 20.0674%. In addition, the “STD % to SP1” value in the assay on PBP2B (1H iNβ) worked out at 22.5751%. Also, the “STD amplification factor as fraction of highest SP1:PBP5 value” (from here on “STD amplification factor as fraction”) in the assay with PBP2B (1H DLacβ) is 0.2496; with PBP2B (1H DQ2β (first listed)) it was 0.5252; in the assay on PBP2B (1H DQ2β (second listed)) it was 0.5905; with PBP2B (1H DQ2γ) it was 0.226; in the assay on PBP2B (1H K3α) it was 0.412; with PBP2B (1H K3β) it was 0.8573. Further, the “STD amplification factor as fraction” value amounted to 0.4068 in the assay with PBP2B (1H K3γ); 0.5438 in the assay with PBP2B (1H K3δ); 0.1308 in the assay with PBP2B (1H K3ε); 0.4487 with PBP2B (1H LA1α); 0.2824 with PBP2B (1H LA1β); 0.2007 with PBP2B (1H iNα,DQ2α). Further, in the assay on PBP2B (1H iNβ), the “STD amplification factor as fraction” value turned out to be 0.2258. For the same compound, the “STD amplification factor, 2000” value in the assay with PBP2B (1H DLacβ) is listed as 6.715; in the assay on PBP2B (1H DQ2β (first listed)), 14.1315; in the assay with PBP2B (1H DQ2β (second listed)), 15.8889; in the assay on PBP2B (1H DQ2γ), 6.082; in the assay with PBP2B (1H K3α), 11.0865; in the assay on PBP2B (1H K3β), 23.0696. Besides, the “STD amplification factor, 2000” value with PBP2B (1H K3γ) amounted to 10.9455; in the assay on PBP2B (1H K3δ), 14.6327; in the assay with PBP2B (1H K3ε), 3.518; with PBP2B (1H LA1α), 12.0745; in the assay with PBP2B (1H LA1β) it was 7.599; in the assay with PBP2B (1H iNα,DQ2α), 5.4. The “STD amplification factor, 2000” value in the assay on PBP2B (1H iNβ) is on record as 6.075.
